Measured values published in patent US10168342B2, “Lipid probes and uses thereof” (THE SCRIPPS RESEARCH INSTITUTE, priority 2015, dated 2019).

Columns and labels:
[1] = system: membrane and soluble proteins of HEK293T cells; assay: Gel-based profiling of lipid probe labeling in HEK293T cells; assay type: cell-based, human; settings: probe 20 μM, 30 min, UV
Protocol: For gel-based analysis, after sonicating the membrane pellets in cold DPBS, protein concentrations of each fraction were determined using the BCA protein assay (Bio-Rad) and a microplate reader (Tecan, Infinite F500).
Proteomes were diluted to 1.0 mg/mL (total protein concentration) and 50 μL of each proteome was transferred to separate wells in a 96-well plate.
In some instances, within the arachidonoyl subset of probes, fatty acid- and fatty acid amide-based probes (AA-DA and AEA-DA, respectively) were synthesized and their potential were evaluated to bind and covalently modify (under UV-light exposure) proteins in human cells by gel-based profiling. For example, HEK293T cells were treated with probe (AA-DA or AEA-DA; 20 μM, 30 min), irradiated with UV light (10 min, 4° C.), lysed and the cell proteomes fractionated into membrane and soluble components by centrifugation prior to conjugation to a fluorescent reporter tag (Rh—N3) using CuAAC (FIG. 4A). […] In some instances, this was a consequence of rapid sequestration of this probe into membranes through its metabolic incorporation into phospho/neutral-lipids or into lipidated proteins. […] In some instances, the labeling profile of the AEA-DA probe reflected a limited capacity of the cell to metabolize this amidated probe, which undergoes enzyme-mediated hydrolysis prior to incorporation into other lipids or proteins.

lipids of Neuro2a cells = assay: Untargeted metabolomics (lipidomic profiling) of Neuro2a cells; assay type: cell-based, mouse; settings: 10 μM, 6 h
Protocol: Discovery metabolite profiling was performed as described by Saghatelian et al., “Assignment of endogenous substrates to enzymes by global metabolite profiling,” Biochemistry 43:14332-14339 (2004) with several modifications. […] The media from the cells was removed and cells were washed with DPBS (2×5.0 mL) before adding freshly prepared media solutions containing vehicle or compound. After incubating for 6 h at 37° C. and subsequent removal of the media, the cells were harvested by scrapping in cold DPBS (3 mL) and pelleted by centrifugation in glass vials. The pellets were washed once with cold DPBS (3 mL) and then cold […] (2:1) (3 mL) was added. After vortexing, the vials were centrifuged (3,000×g, 10 min, 4° C.) and the bottom (organic) layer was transferred to a new glass vial and concentrated under a stream of N2. Samples were stored at −80° C. until the day of analysis when they were reconstituted in Mobile Phase A (100 μL, see below).
Lipid extracts were analyzed by LC/MS in both positive and negative modes using an Agilent 6520 QTOF instrument and LC separation performed on a Kinetex reversed phase C18 column (50×4.6 mm, 2.6 μm particle size, 100Å). Mobile phase A was composed of 5:1:4 isopropanol:methanol:water and Mobile phase B was composed of 99:1 isopropanol:water. Both mobile phases also contained 0.1% AcOH and NH4OAc (5 mM) to facilitate ionization and LC separation. […] To minimize carryover, LC solvents were cycled between 100% Mobile Phase A and 100% Mobile Phase B over 5 min after each run. Data analysis was performed using XCMS (Smith et al., 2006) software which is freely available online (http://xcmsonline.scripps.edu).

[2] = molecular target: A-DA lipid probe targets in A549 cells (Homo sapiens, UniProt P48449); assay: In situ competitive SILAC profiling with A-DA probe in (PMA-stimulated) A549 cells; settings: A549 cells, A-DA 5 μM, drug 5 μM; only two off-targets (TMEM97 and EBP)
A-DA lipid probe targets in A549 cells, sequence (P48449 whole entry): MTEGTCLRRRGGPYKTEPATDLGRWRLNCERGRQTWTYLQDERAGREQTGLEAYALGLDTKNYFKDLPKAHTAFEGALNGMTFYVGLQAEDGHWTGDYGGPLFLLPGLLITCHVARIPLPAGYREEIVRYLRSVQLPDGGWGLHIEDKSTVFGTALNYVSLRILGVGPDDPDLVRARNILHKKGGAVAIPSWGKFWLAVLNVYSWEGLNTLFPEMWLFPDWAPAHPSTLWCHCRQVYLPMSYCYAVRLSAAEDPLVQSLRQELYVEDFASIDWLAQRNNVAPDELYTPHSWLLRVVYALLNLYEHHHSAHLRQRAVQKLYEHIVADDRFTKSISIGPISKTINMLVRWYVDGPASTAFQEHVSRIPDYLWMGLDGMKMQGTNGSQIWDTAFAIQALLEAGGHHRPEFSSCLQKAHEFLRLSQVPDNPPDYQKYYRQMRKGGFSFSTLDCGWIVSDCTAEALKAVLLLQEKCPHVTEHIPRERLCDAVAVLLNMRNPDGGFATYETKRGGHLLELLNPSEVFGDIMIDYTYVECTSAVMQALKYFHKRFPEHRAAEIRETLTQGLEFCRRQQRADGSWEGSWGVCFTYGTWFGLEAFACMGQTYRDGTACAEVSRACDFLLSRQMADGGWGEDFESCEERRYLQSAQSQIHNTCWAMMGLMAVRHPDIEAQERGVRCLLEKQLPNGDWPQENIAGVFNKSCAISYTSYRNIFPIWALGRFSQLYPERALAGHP

[3] = Neg, m/z 716.52, RT 32.28 min, versus DMSO
[4] = Neg, m/z 721.50, RT 30.94 min, versus DMSO
[5] = Neg, m/z 786.53, RT 31.97 min, versus DMSO
[6] = Neg, m/z 788.54, RT 34.16 min, versus DMSO
[7] = Neg, m/z 808.51, RT 30.14 min, versus DMSO
[8] = Pos, m/z 788.61, RT 35.81 min, versus DMSO

Structure (SMILES): C#CCCCC1(CC/C=C\C/C=C\C/C=C\CCCC(=O)NCCO)N=N1 [AEA-DA, (5Z,8Z,11Z)-N-(2-hydroxyethyl)-14-(3-(pent-4-yn-1-yl)-3H-diazirin-3-yl)tetradeca-5,8,11-trienamide]
- protein labeling profile (membrane vs soluble) [1]: substantial labeling of both soluble and membrane proteins

Structure (SMILES): CN1CCN(C(=O)c2[nH]c3ccc([N+](=O)[O-])cc3c2-c2ccccc2)CC1 [MJN228, (4-Methylpiperazin-1-yl)(5-nitro-3-phenyl-1H-indol-2-yl)methanone]
- Fold Change, FFA 16:0 (lipids of Neuro2a cells; Neg, m/z 255.23, RT 14.24 min, versus DMSO): 1.17 fold
- Fold Change, FFA 18:1 (lipids of Neuro2a cells; Neg, m/z 281.25, RT 15.75 min, versus DMSO): 1.23 fold
- Fold Change, FFA 18:0 (lipids of Neuro2a cells; Neg, m/z 283.26, RT 20.89 min, versus DMSO): 1.22 fold
- Fold Change, FFA 20:4 (lipids of Neuro2a cells; Neg, m/z 303.23, RT 12.39 min, versus DMSO): 1.17 fold
- Fold Change, NAT 24:1 (lipids of Neuro2a cells; Neg, m/z 444.31, RT 9.31 min, versus DMSO): 2.51 fold
- Fold Change, NAT 24:0 (lipids of Neuro2a cells; Neg, m/z 446.33, RT 13.76 min, versus DMSO): 2.29 fold
- Fold Change, LPE 16:0 (lipids of Neuro2a cells; Neg, m/z 452.28, RT 5.02 min, versus DMSO): 1.25 fold
- Fold Change, NAT 26:0 (lipids of Neuro2a cells; Neg, m/z 474.36, RT […], versus DMSO): 2.75 fold
- Fold Change, LPE 18:1 (lipids of Neuro2a cells; Neg, m/z 478.29, RT 5.66 min, versus DMSO): 1.50 fold
- Fold Change, LPE 18:0 (lipids of Neuro2a cells; Neg, m/z 480.31, RT 7.96 min, versus DMSO): 1.43 fold
- Fold Change, feature m/z 596.39 (lipids of Neuro2a cells; Neg, m/z 596.39, RT […], versus DMSO): 2.02 fold
- Fold Change, feature m/z 622.41 (lipids of Neuro2a cells; Neg, m/z 622.41, RT 12.66 min, versus DMSO): 2.06 fold
- Fold Change, PA 34:1 (lipids of Neuro2a cells; Neg, m/z 673.48, RT 33.41 min, versus DMSO): 1.01 fold
- Change (direction), PE 34:1 (lipids of Neuro2a cells; [3]): DOWN
- Fold Change, PE 34:1 (lipids of Neuro2a cells; [3]): 1.35 fold
- Change (direction), PG 32:0 (lipids of Neuro2a cells; [4]): DOWN
- Fold Change, PG 32:0 (lipids of Neuro2a cells; [4]): 1.26 fold
- Fold Change, PE 36:4 (lipids of Neuro2a cells; Neg, m/z 738.51, RT 33.92 min, versus DMSO): 1.46 fold
- Fold Change, PG 34:1 (lipids of Neuro2a cells; Neg, m/z 747.52, RT 32.95 min, versus DMSO): 1.22 fold
- Fold Change, PG 34:0 (lipids of Neuro2a cells; Neg, m/z 749.53, RT 34.04 min, versus DMSO): 1.24 fold
- Fold Change, PS 34:1 (lipids of Neuro2a cells; Neg, m/z 760.51, RT 31.80 min, versus DMSO): 1.07 fold
- Fold Change, PE 38:5 (lipids of Neuro2a cells; Neg, m/z 764.52, RT 35.18 min, versus DMSO): 1.02 fold
- Fold Change, PE 38:4 (lipids of Neuro2a cells; Neg, m/z 766.54, RT 36.76 min, versus DMSO): 1.01 fold
- Fold Change, PG 36:1 (lipids of Neuro2a cells; Neg, m/z 775.55, RT 34.70 min, versus DMSO): 1.02 fold
- Change (direction), PS 36:2 (lipids of Neuro2a cells; [5]): DOWN
- Fold Change, PS 36:2 (lipids of Neuro2a cells; [5]): 1.11 fold
- Change (direction), PS 36:1 (lipids of Neuro2a cells; [6]): DOWN
- Fold Change, PS 36:1 (lipids of Neuro2a cells; [6]): 1.03 fold
- Change (direction), PS 38:5 (lipids of Neuro2a cells; [7]): DOWN
- Fold Change, PS 38:5 (lipids of Neuro2a cells; [7]): 1.05 fold
- elevation of metabolites (NAEs and NATs) versus DMSO (lipids of Neuro2a cells; Neuro2a cells, P<0.0001): ≥ 2 fold
- Fold Change, NAE 18:1 (lipids of Neuro2a cells; Pos, m/z 326.30, RT 8.36 min, versus DMSO): 2.91 fold
- Fold Change, NAE 18:0 (lipids of Neuro2a cells; Pos, m/z 328.32, RT 12.20 min, versus DMSO): 2.00 fold
- Fold Change, MAG 16:0 (lipids of Neuro2a cells; Pos, m/z 331.28, RT 8.51 min, versus DMSO): 1.67 fold
- Fold Change, MAG 18:1 (lipids of Neuro2a cells; Pos, m/z 358.30, RT 9.68 min, versus DMSO): 1.37 fold
- Fold Change, feature m/z 371.10 (lipids of Neuro2a cells; Pos, m/z 371.10, RT 13.51 min, versus DMSO): 2.00 fold
- Fold Change, LPC 18:1 (lipids of Neuro2a cells; Pos, m/z 522.35, RT 5.29 min, versus DMSO): 1.24 fold
- Fold Change, LPC 18:0 (lipids of Neuro2a cells; Pos, m/z 524.37, RT 7.49 min, versus DMSO): 1.48 fold
- Fold Change, LPC 20:4 (lipids of Neuro2a cells; Pos, m/z 544.34, RT 5.29 min, versus DMSO): 1.69 fold
- Fold Change, feature m/z 669.22 (lipids of Neuro2a cells; Pos, m/z 669.22, RT 13.52 min, versus DMSO): 2.15 fold
- Fold Change, feature m/z 704.21 (lipids of Neuro2a cells; Pos, m/z 704.21, RT 19.42 min, versus DMSO): 2.45 fold
- Fold Change, feature m/z 705.21 (lipids of Neuro2a cells; Pos, m/z 705.21, RT 19.44 min, versus DMSO): 2.63 fold
- Fold Change, feature m/z 743.24 (lipids of Neuro2a cells; Pos, m/z 743.24, RT 19.42 min, versus DMSO): 2.56 fold
- Fold Change, feature m/z 744.24 (lipids of Neuro2a cells; Pos, m/z 744.24, RT 19.44 min, versus DMSO): 2.88 fold
- Fold Change, feature m/z 745.24 (lipids of Neuro2a cells; Pos, m/z 745.24, RT 19.44 min, versus DMSO): 2.81 fold
- Fold Change, PC 34:0 (lipids of Neuro2a cells; Pos, m/z 762.60, RT 36.86 min, versus DMSO): 1.00 fold
- Fold Change, feature m/z 776.23 (lipids of Neuro2a cells; Pos, m/z 776.23, RT 25.46 min, versus DMSO): 2.50 fold
- Fold Change, feature m/z 777.23 (lipids of Neuro2a cells; Pos, m/z 777.23, RT 25.48 min, versus DMSO): 2.52 fold
- Fold Change, feature m/z 778.23 (lipids of Neuro2a cells; Pos, m/z 778.23, RT 25.47 min, versus DMSO): 2.41 fold
- Fold Change, feature m/z 779.23 (lipids of Neuro2a cells; Pos, m/z 779.23, RT 25.47 min, versus DMSO): 2.59 fold
- Change (direction), PC 36:1 (lipids of Neuro2a cells; [8]): DOWN
- Fold Change, PC 36:1 (lipids of Neuro2a cells; [8]): 1.04 fold
- Fold Change, feature m/z 817.26 (lipids of Neuro2a cells; Pos, m/z 817.26, RT 25.47 min, versus DMSO): 2.35 fold
- Fold Change, feature m/z 818.26 (lipids of Neuro2a cells; Pos, m/z 818.26, RT 25.47 min, versus DMSO): 2.51 fold
- Fold Change, feature m/z 819.26 (lipids of Neuro2a cells; Pos, m/z 819.26, RT 25.46 min, versus DMSO): 2.85 fold
- Fold Change, feature m/z 820.26 (lipids of Neuro2a cells; Pos, m/z 820.26, RT 25.47 min, versus DMSO): 2.79 fold
- Fold Change, feature m/z 850.25 (lipids of Neuro2a cells; Pos, m/z 850.25, RT 30.92 min, versus DMSO): 2.42 fold
- Fold Change, feature m/z 851.25 (lipids of Neuro2a cells; Pos, m/z 851.25, RT 30.92 min, versus DMSO): 2.41 fold
- Fold Change, feature m/z 852.25 (lipids of Neuro2a cells; Pos, m/z 852.25, RT 30.92 min, versus DMSO): 2.46 fold
- Fold Change, feature m/z 853.25 (lipids of Neuro2a cells; Pos, m/z 853.25, RT 30.92 min, versus DMSO): 2.61 fold
- Fold Change, feature m/z 924.27 (lipids of Neuro2a cells; Pos, m/z 924.27, RT 33.83 min, versus DMSO): 2.14 fold
- Fold Change, feature m/z 925.27 (lipids of Neuro2a cells; Pos, m/z 925.27, RT 33.83 min, versus DMSO): 2.19 fold
- Fold Change, feature m/z 926.27 (lipids of Neuro2a cells; Pos, m/z 926.27, RT 33.84 min, versus DMSO): 2.27 fold
- Fold Change, feature m/z 927.27 (lipids of Neuro2a cells; Pos, m/z 927.27, RT 33.83 min, versus DMSO): 2.19 fold

Structure (SMILES): C=CCN(C)CCCCCCOc1ccc(C(=O)c2ccc(Br)cc2)c(F)c1 [Ro 48-8071, reference compound]
- competition of probe labeling of LSS [2]: fully competed
